Laboratory results published in US8822542B2, “Isoketal scavengers and mitigation of disorders involving oxidative injury” (Vanderbilt University, priority 2005, dated 2014).
Entries after “also recorded” stand apart in the source; their conditions may differ.

Assays:
[1] = Second order rate of pyrrole formation with the model γ-ketoaldehyde 4-oxopentanal; assay type: biochemical
Procedure: The present inventors determined the approximate second order rate constants of different amines for pyrrole formation with […], a γ-ketoaldehyde.
These compounds are tested for the rate of pyrrole formation when incubated with the γ-ketoaldehyde, 4-oxopentanal. […] Ehrlich reagent may be used to detect levels of pyrroles.
All rates are shown relative to N-α-acetyl-lysine.

ovalbumin (OVA) = ovalbumin (OVA) (Gallus gallus, UniProt P01012); test: Protein cross-linking after incubation with ovalbumin; assay type: biochemical; conditions: 10 molar equivalents, about 4 hours
Sequence of ovalbumin (OVA) (P01012 whole entry, species assumed): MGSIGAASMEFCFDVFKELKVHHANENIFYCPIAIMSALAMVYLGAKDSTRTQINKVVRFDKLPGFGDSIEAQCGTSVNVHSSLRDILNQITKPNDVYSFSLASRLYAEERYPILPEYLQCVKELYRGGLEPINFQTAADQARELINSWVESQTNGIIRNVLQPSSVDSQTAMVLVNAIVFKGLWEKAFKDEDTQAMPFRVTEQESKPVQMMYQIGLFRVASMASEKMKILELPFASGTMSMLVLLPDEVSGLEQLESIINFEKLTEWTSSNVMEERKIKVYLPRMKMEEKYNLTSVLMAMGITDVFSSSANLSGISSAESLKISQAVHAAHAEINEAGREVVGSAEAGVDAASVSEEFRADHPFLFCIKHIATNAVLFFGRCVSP
From the text: The above findings explained why repeated attempts in the past to detect free IsoKs during oxidation of biological systems in vitro, e.g. microsomes, and in animal models of oxidant injury in vivo were unsuccessful because they are rapidly sequestered as protein adducts. Therefore, the present inventors undertook to determine the identity of IsoK lysyl adducts as a basis for development of methodology to detect IsoK and NeuroK adducts in biological tissues in their adducted form. […] Reversible Schiff base adducts were also identified. Schiff base adducts are formed rapidly and then decline over time, whereas lactam adducts accumulate slowly over time. Lysyl protein adducts of IsoKs and NeuroKs are analyzed by LC/MS/MS following enzymatic digestion of proteins to individual amino acids. Enzymatic digestion of proteins is necessary because the adducts degrade during acid hydrolysis. However, this analysis is further complicated by the proclivity of IsoKs and NKs to induce protein crosslinking, which is resistant to hydrolysis. […] This is a dramatic example of the differential effects of IsoKs/NKs and HNE on protein adduction and cross-linking.

proteasome = test: Hydrolysis of fluorogenic substrate VKM-amc by proteasome containing cell lysates; assay type: biochemical; conditions: equimolar adduction of VKM-amc
[2] = target: human cardiac Na channel (hH1, or SCN5A) (Homo sapiens, UniProt Q14524); test: Whole-cell Na current recording, wild-type hH1 expressed in HEK-293 cells; conditions: HEK-293; t-BHP 1 mM, Iso-K 10 μM, flecainide 1 μM
Sequence of human cardiac Na channel (hH1, or SCN5A) (Q14524 whole entry): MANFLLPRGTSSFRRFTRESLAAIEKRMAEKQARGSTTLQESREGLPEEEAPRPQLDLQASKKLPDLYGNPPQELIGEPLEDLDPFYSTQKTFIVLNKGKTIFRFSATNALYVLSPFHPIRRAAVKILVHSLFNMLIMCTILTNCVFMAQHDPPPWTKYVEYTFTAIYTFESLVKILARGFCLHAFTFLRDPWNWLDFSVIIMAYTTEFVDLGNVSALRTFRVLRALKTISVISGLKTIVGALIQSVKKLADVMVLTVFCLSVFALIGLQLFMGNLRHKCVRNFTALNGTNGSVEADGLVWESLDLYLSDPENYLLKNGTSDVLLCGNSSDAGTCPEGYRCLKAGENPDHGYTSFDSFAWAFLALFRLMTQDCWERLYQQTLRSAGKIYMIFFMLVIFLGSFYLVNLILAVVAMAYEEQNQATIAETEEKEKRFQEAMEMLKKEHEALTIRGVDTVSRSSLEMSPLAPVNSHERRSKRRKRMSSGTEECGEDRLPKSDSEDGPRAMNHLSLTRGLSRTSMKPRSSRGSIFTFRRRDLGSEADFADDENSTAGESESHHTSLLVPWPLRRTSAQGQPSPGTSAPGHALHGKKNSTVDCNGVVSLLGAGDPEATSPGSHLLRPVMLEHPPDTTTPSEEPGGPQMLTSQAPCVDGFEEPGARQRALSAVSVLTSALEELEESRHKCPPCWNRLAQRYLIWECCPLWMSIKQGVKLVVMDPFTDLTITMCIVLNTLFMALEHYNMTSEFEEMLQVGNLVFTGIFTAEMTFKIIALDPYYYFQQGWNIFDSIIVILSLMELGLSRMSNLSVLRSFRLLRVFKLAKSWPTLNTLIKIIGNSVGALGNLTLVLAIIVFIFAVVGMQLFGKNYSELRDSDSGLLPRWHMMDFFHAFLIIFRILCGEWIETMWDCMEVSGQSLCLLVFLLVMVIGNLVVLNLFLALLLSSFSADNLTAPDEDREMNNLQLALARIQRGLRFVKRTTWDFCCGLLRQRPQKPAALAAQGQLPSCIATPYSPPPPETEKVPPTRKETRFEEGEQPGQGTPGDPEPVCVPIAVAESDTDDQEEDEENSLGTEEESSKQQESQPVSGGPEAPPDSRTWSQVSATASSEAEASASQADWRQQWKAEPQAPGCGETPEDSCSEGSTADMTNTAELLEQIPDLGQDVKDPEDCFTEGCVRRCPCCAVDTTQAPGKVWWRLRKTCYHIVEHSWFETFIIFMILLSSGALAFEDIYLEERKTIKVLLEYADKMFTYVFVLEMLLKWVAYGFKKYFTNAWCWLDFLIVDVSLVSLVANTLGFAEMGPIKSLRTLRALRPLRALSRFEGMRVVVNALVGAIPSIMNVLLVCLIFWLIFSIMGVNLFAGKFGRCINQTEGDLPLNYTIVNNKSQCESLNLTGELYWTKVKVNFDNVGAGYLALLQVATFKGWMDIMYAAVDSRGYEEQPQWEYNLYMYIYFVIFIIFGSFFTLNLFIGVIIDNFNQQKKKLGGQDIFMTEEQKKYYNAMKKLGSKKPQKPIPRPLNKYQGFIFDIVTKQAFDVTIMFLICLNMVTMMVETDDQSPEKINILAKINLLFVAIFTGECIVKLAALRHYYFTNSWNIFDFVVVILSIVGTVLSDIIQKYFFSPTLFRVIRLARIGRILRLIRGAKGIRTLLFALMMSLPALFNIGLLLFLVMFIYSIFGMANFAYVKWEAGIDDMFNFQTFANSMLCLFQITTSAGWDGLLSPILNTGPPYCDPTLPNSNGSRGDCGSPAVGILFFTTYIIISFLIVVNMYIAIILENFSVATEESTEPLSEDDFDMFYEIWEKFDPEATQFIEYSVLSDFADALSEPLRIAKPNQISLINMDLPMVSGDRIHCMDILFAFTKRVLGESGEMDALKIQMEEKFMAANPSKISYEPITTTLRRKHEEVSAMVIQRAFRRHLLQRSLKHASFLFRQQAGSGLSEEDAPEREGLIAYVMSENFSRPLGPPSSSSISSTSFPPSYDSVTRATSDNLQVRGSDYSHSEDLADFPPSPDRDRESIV

bovine serum albumin = bovine serum albumin (Bos taurus, UniProt P02769); test: Disappearance of free IsoK and HNE during incubation with bovine serum albumin (rate of adduction); assay type: biochemical; conditions: after 80 minutes
Sequence of bovine serum albumin (P02769 25-607): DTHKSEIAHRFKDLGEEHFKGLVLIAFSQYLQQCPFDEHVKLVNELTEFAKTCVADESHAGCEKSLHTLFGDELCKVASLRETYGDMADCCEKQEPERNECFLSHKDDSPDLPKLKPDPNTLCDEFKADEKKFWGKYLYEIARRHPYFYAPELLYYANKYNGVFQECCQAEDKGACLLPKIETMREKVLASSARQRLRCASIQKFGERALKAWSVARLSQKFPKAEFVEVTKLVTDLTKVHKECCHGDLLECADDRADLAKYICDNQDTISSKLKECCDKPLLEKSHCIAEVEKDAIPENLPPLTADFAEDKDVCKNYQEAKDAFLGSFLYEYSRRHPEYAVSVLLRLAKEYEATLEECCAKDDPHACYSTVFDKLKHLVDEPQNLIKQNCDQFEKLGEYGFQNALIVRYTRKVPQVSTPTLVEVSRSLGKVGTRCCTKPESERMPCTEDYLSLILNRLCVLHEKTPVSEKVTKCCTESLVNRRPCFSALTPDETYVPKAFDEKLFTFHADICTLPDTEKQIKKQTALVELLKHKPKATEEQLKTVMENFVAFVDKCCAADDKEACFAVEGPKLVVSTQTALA
Procedure: Oxidation of AA in vitro produces both F2-IsoPs and IsoKs in nearly equivalent amounts. However, comparison of the formation of F2-IsoPs and IsoKs in vivo is more complex, because IsoKs rapidly adduct to lysyl residues on proteins. […] In striking contrast, approximately 50% of the HNE still remained in free form after 80 minutes.

HepG2 cell = test: Cellular viability of HepG2 cells exposed to hydrogen peroxide; assay type: cell-based
[3] = Lipophilicity / penetration into nonpolar environments; assay type: physicochemical
[4] = Oxidation of arachidonic acid in the presence of scavenger and 10 molar excess of lysine; assay type: biochemical; conditions: for levels of Lys-lactam adduct formed: compared to vehicle
From the text: The amounts of each of these adducts to the amount of γ KA adduct formed were normalized. […] Because cardiac ion channels are embedded in cellular membranes, the ability to penetrate into membranes is critical.

[5] = tested on: mice subjected to ligation of the left anterior coronary artery; test: Myocardial infarction by coronary ligation in mice; assay type: in vivo, mouse
From the text: (§1) In a series of experiments, the present inventors have tested the effect of the γ KA scavenger salicylamine (SA) in mice subjected to ligation of the left anterior coronary artery resulting in a myocardial infarction. All experiments were done in blinded fashion regarding the treatment group (SA versus placebo (water)). Mice received drinking water containing either SA (1 g/l) or no drug for three days prior to coronary ligation and for 7 days afterwards.
The present inventors examined the effect of SA treatment on Lys-lactam protein adduct formation. Mouse hearts were harvested 7 days after coronary ligation and the atria and the right ventricular free wall were removed. The remainder of each heart (LV free wall and septum) was then cut into two, roughly equal tissue specimens of ˜50 mg wet weight: The anterior-apical part contained the infarct and the peri-infarct border zone (MI+borderzone), and the posterior-basal part was unaffected (Remote). The tissue content of Lys-lactam protein adducts was quantified using our LC MS^2 based analytical technique.

[6] = tested on: transgenic humanized apoE4 mice (hApoE4); test: Water radial arm maze in transgenic humanized apoE4 mice; assay type: in vivo, mouse; set-up: dose or concentration left out as unconfirmed; conditions: water containing SA, six months, tested at 12 months of age
From the text: Starting at six months of age, wild-type (C57) and transgenic humanized apoE4 mice (hApoE4) were given either standard water or water containing […] SA (+SA) as their only source of drinking water. At this time, animals were also switched from standard chow diets to either a sufficient amino acid based diet (suff) or an amino-acid based diet insufficient in choline, methionine, and folate, and enriched in homocysteine (HC). All animals were fed diets and drinking water for six months (to 12 months of age) prior to testing. The purpose of the HC diet was to attempt to exacerbate oxidative stress in these animals. Because breeding and behavioral testing is extremely time consuming, it was not possible to have sufficient animals for each group in a single cohort and still perform adequate behavioral testing. Therefore two separate cohorts of animals (A & B) were raised and tested about two month apart. […]
The water radial arm maze test requires a mouse to find a hidden platform placed in one of six maze arms. […] If the mouse enters an arm without the platform, an error is scored and the mouse is dragged by the tail back to the start arm and released. […] If a mouse swims in the central area for 12 sec without picking an arm, an error is also scored and the animal is dragged back to the start arm and released. […]

[7] = SA in the drinking water of mice: concentrations and tolerability; assay type: in vivo, C57BL6 mice
Procedure: as §1
SA was tested to determine whether it could be used in vivo. 1 g/L or 5 g/L salicylamine was added to the drinking water of C57BL6 mice for 5 days and then harvested plasma and liver from the animals. SA was measured by monitoring absorption at 259 nm after derivatization with 1,1′-thiocarbonyldiimidazole.

[8] = tested on: patients convalescing from myocardial infarction; conditions: in vivo; cited from earlier work
20S proteasome [9] = test: Degradation of adducted ovalbumin by purified 20S proteasome; assay type: biochemical
20S proteasome [10] = target: 20S proteasome (Homo sapiens, UniProt P28074); test: Inhibition of 20S proteasome chymotrypsin-like activity (LLVY-amc hydrolysis); assay type: biochemical
From the text: Because nondegradable substrates often act as competitive inhibitors, the inventors tested whether E2-IsoK adducted proteins would inhibit proteasome chymotrypsin-like activity as measured by hydrolysis of a fluorogenic substrate, LLVY-amc.

[11] = tested on: plasma concentrations of F2-IsoPs; test: Vitamin E supplementation, plasma F2-IsoPs in subjects with hypercholesterolemia; assay type: in vivo, human
Procedure: The use of antioxidants to suppress oxidative injury: An important aspect of antioxidant clinical trials that has not received sufficient attention until recently, is the scientific rational for the choice of a particular antioxidant to test, the dose to test, and the duration of treatment. […] This was a key finding because the literature is abound with studies in which have vitamin E was administered for less than 10 weeks to determine its effects on some pathologic process. […] This is an important finding because many studies of the effects of vitamin E have used doses of 400 I.U./d and observed no benefit.

progression of AD = conditions: 2000 I.U./d; cited from earlier work

Molecule: NCCO [2-aminoethanol]
- approximate second order rate constants for pyrrole formation [1]: 3.1e+08 M⁻¹ s⁻¹

Molecule: NCc1ccc(O)cc1 [4-SA, 4-salicylamine]
- scavenging γ KAs [1]: inactive

Molecule: NCc1ccncc1 [4-picolinylamine]
- approximate second order rate constants for pyrrole formation [1]: 0.0011 M⁻¹ s⁻¹

Molecule: CCCCCC(O)/C=C/C=O (stereo not drawn) [HNE, 4-hydroxynonenal]
- cross-linking of ovalbumin (ovalbumin (OVA)): no cross-linking was observed
- hydrolysis of the adducted peptide by proteasome containing cell lysates (proteasome): no effect on hydrolysis
- V1/2 voltage-dependence of inactivation (availability) [2]: −83.7±2.1 mV
- remained in free form (bovine serum albumin): approximately 50%

Molecule: CC(=O)N[C@@H](CCCCN)C(=O)O [N^αacetyllysine]
- approximate second order rate constants for pyrrole formation [1]: 7e+07 M⁻¹ s⁻¹

Molecule: Cc1ncc(CO)c(CN)c1O [PM, pyridoxamine]
- protection of cellular viability (HepG2 cell): no significant protection
- lipophilicity / penetration into nonpolar environments [3]: quite hydrophilic; also recorded: poorly penetrates into nonpolar environments

Molecule: NCc1ccccc1O [SA, salicylamine]
- levels of F2-IsoP formed [4]: None of the three scavengers reduced
- selectivity for γ KA products over other lipid peroxidation products [4]: relatively selectively
- levels of Lys-lactam adduct formed [4]: markedly reduced
- systolic function, fractional LV shortening (FS) by echocardiography ([5]; 1 g/l in drinking water, 7 days post MI): improved systolic function
- Lys-lactam protein adducts in infarct and peri-infarct borderzone ([5]; 7 days after coronary ligation): appears to prevent the adduct formation
- infarct size ([5]; hearts harvested 7 days after coronary ligation): significantly reduced infarct size
- survival after MI ([5]; p=0.1): trend towards increased survival
- memory performance (latency, Z-score) [6]: significantly improved the performance
- memory performance (latency, Z-score) ([6]; listed as salicylamine): improves memory
- protection of cellular viability (HepG2 cell): best protection
- scavenging γ KAs [1]: very good at scavenging
- tolerability of the dosing regimen ([7]; 1 g/l in drinking water): well tolerated
- oral bioavailability ([7]; mouse, in vivo, po): orally bioavailable
- lipophilicity / penetration into nonpolar environments [3]: readily dissolve into ethyl acetate; also recorded: most lipophilic scavenger

Molecule: COc1ccc(C(=O)Nc2ccccc2CCC2CCCCN2C)cc1 (stereo not drawn) [encainide]
- mortality increase [8]: three-fold

Molecule: F2-isoprostane
- V1/2 voltage-dependence of inactivation (availability) [2]: −91.4±1.8 mV

Molecule: IsoK(1)-OVA: ovalbumin adducted with equimolar E2-IsoK
- degradation by purified 20S proteasome (20S proteasome [9]): nearly in half

Molecule: IsoK(10)-OVA: ovalbumin adducted with ten molar equivalents of E2-IsoK
- degradation by purified 20S proteasome (20S proteasome [9]): completely blocked its degradation

Molecule: IsoK-Aβ1-40: Aβ1-40 adducted with E2-IsoK
- IC50 (20S proteasome [10]): 1300 nM

Molecule: pentylpyridoxamine [PPM]
- levels of F2-IsoP formed [4]: None of the three scavengers reduced
- selectivity for γ KA products over other lipid peroxidation products [4]: relatively selectively; also recorded: most selective
- levels of Lys-lactam adduct formed [4]: markedly reduced
- protection of cellular viability (HepG2 cell): slightly less protection
- scavenging γ KAs [1]: very good at scavenging

Molecule: vitamin E
- reduction of F2-IsoP levels ([11]; 800 I.U./d, 18 weeks): about 10%
- maximum suppression of plasma F2-IsoPs ([11]; 3200 I.U./d, 18 weeks): 49%
- effect on F2-IsoP levels ([11]; doses below 800 I.U./d, 18 weeks): no significant effect
- supplementation required to reach the plateau in maximum suppression of plasma F2-IsoPs ([11]; human, in vivo): sixteen
- effect to slow the progression of the disease (progression of AD): modest effect
